Literature values, collected in PubChem BioAssay AID1259410 (Chemical Carcinogenesis Research Information System (CCRIS), 2018).

Tested on: rodent tumor promotion studies, tumor incidence
Assay: CCRIS tumor promotion studies

## CC(=O)Oc1ccc(C(c2ccc(OC(C)=O)cc2)c2ccccn2)cc1
Carcinogen: AZOXYMETHANE, 25843-45-2, Doses [Carcinogen]: 15 MG/KG TWICE ON DAYS 1 AND 5 OF TREATMENT, Doses [Promoter]: 0, 4.3, 43 MG/KG/D 6 D/WK FOR 13 WK (STUDY DURATION: 13 WK), Doses [Promoter]: 0, 4.3, 43 MG/KG/D 6 D/WK FOR 13 WK (STUDY DURATION: 13 WK), Route [Carcinogen]: INTRAPERITONEAL, Route [Promoter]: GAVAGE, Species: RAT, Strain/Sex: WISTAR/MALE
  outcome: colon: adenocarcinoma

## CN(CCCC(=O)O)N=O
Carcinogen: 1-NITROSO-1,3-DIMETHYLUREA, 13256-32-1, Doses [Carcinogen]: 10 MG/ML IN ETHYL ACETATE/CORN OIL (1:1) 1/WK FOR 2 WK, Doses [Promoter]: 0, 100 MG/L IN DRINKING WATER 5 D/WK FOR 40 WK BEGINNING 1/WK POST CARCINOGEN TREATMENT (STUDY DURATION: 43 WK), Route [Carcinogen]: GAVAGE, Route [Promoter]: ORAL, Species: RAT, Strain/Sex: F344/MALE
  outcome: urinary bladder: transitional cell carcinoma
Carcinogen: NITROSOBIS(2-OXOPROPYL)AMINE, 60599-38-4, Doses [Carcinogen]: 12 MG/ML IN ETHYLACETATE/CORN OIL (1:1) 2/WK FOR 2 WK, Doses [Promoter]: 0, 100 MG/L IN DRINKING WATER 5 D/WK FOR 40 WK BEGINNING 1 WK POST CARCINOGEN TREATMENT (STUDY DURATION: 43 WK), Route [Carcinogen]: GAVAGE, Route [Promoter]: ORAL, Species: RAT, Strain/Sex: F344/MALE
  outcome: colon: adenocarcinoma; urinary bladder: transitional cell carcinoma

## Oc1cc(O)c2c(c1)O[C@H](c1ccc(O)c(O)c1)[C@@H](O)C2
Carcinogen: N-METHYL-N'-NITRO-N-NITROSOGUANIDINE, 70-25-7, Doses [Carcinogen]: 150 MG/KG BW ONCE, Doses [Promoter]: 0, 0.8% IN DIET FOR 51 D BEGINNING 1 WK POST CARCINOGEN DOSE (STUDY DURATION: 52 WK), Route [Carcinogen]: GAVAGE, Route [Promoter]: ORAL, Species: RAT, Strain/Sex: F344/MALE
  outcome: forestomach: carcinoma; glandular stomach: adenocarcinoma

## CCCCCCCCCCCCCCCCCC
Carcinogen: 7,12-DIMETHYLBENZ(A)ANTHRACENE, Doses [Carcinogen]: TOP, Route [Carcinogen]: DERMAL, Route [Promoter]: DERMAL, Species: MOUSE, Strain/Sex: MALE,FEMALE
  outcome: integumentary system (skin)

## Cc1cc(C)cc(O)c1
Carcinogen: 7,12-DIMETHYLBENZ(A)ANTHRACENE, Doses [Carcinogen]: TOP, Route [Carcinogen]: DERMAL, Route [Promoter]: DERMAL, Species: MOUSE, Strain/Sex: FEMALE
  outcome: integumentary system (skin)

## ClC1=C(Cl)C2(Cl)C3C(Cl)C(Cl)CC3C1(Cl)C2(Cl)Cl (configuration not stated)
Carcinogen: DIETHYLNITROSAMINE, 55-18-5, Doses [Carcinogen]: 20 PPM IN DRINKING WATER FOR 14 WK, Doses [Promoter]: 0, 25, 50 PPM TECHNICAL GRADE IN DIET BEGINNING 4 WK POST LAST CARCINOGEN DOSE AND CONTINUING FOR 25 WK (STUDY DURATION:, Doses [Promoter]: 0, 25, 50 PPM TECHNICAL GRADE IN DIET BEGINNING 4 WK POST LAST CARCINOGEN DOSE AND CONTINUING FOR 25 WK (STUDY DURATION:, Route [Carcinogen]: ORAL, Route [Promoter]: ORAL, Species: MOUSE, Strain/Sex: B6C3F1/MALE
  outcome: liver: adenoma or carcinoma

## O=NN(CCO)CCO
Carcinogen: NITROSO(2-OXOPROPYL)AMINE, 60599-38-4, Doses [Carcinogen]: 12 MG/ML IN ETHYL ACETATE/CORN OIL (1:1) 2/WK FOR 2 WK, Doses [Promoter]: 0, 100 MG/L IN DRINKING WATER 5 D/WK FOR 40 WK BEGINNING 1/WK POST CARCINOGEN TREATMENT (STUDY DURATION: 43 WK), Route [Carcinogen]: GAVAGE, Route [Promoter]: ORAL, Species: RAT, Strain/Sex: F344/MALE
  outcome: kidney: renal cell carcinoma

## CCCC1(CCCCCCCCCCCC(=O)OC2C(C)C3(O)C(C=C(CO)CC4(O)C(=O)C(C)=CC43)C3C(C)(C)C23OC(C)=O)OCC(C)(C)N1[O] (configuration not stated)
Carcinogen: 7,12-DIMETHYLBENZ[A]ANTHRACENE, 57-97-6, Doses [Carcinogen]: 100 NMOL ONCE, Doses [Promoter]: 0, 20 NMOL 2/WK FOR 24 WK BEGINNING 1 WK POST CARCINOGEN DOSE (STUDY DURATION: 25 WK), Route [Carcinogen]: DERMAL, Route [Promoter]: DERMAL, Species: MOUSE, Strain/Sex: NMRI/FEMALE
  outcome: skin: tumor

## C=C1[C@@H](O)[C@@H]2O[C@]3(CC[C@H](/C=C/[C@@H](C)[C@@H]4CC(C)=C[C@@]5(O[C@H](C[C@@](C)(O)C(=O)O)CCC5O)O4)O3)CC[C@H]2O[C@@H]1[C@@H](O)C[C@H](C)[C@H]1O[C@@]2(CCCCO2)CC[C@H]1C (some centres not stated)
Carcinogen: 7,12-DIMETHYLBENZ[A]ANTHRACENE, 57-97-6, Doses [Carcinogen]: 100 UG IN 0.1 ML OF ACETONE ONCE, Doses [Promoter]: 0, 5 UG IN 0.1 ML OF ACETONE 2/WK FOR 30 WK BEGINNING 1 WK POST CARCINOGEN DOSE (STUDY DURATION: 31 WK), Route [Carcinogen]: DERMAL, Route [Promoter]: DERMAL, Species: MOUSE, Strain/Sex: CD-1/FEMALE
  outcome: skin: tumor
Carcinogen: N-METHYL-N'-NITRO-N-NITROSOGUANIDINE, 70-25-7, Doses [Carcinogen]: 100 MG/L OF DEIONIZED WATER AS DRINKING WATER FOR 8 WK, Doses [Promoter]: 0.25 MG/L IN DRINKING WATER BEGINNING 1 WK POST CARCINOGEN TREATMENT AND CONTINUING FOR 46 WK THEN 0.5 MG/L FOR 17 WK (S, Route [Carcinogen]: ORAL, Route [Promoter]: ORAL, Species: RAT, Strain/Sex: SPRAGUE-DAWLEY/MALE
  outcome: glandular stomach: neoplasms

## CCCCCCCCCCCC(=O)OC[C@@H](O)[C@H]1OC[C@H](O)[C@H]1O
Carcinogen: 7,12-DIMETHYLBENZ(A)ANTHRACENE, Doses [Carcinogen]: TOP, Route [Carcinogen]: DERMAL, Route [Promoter]: DERMAL, Species: MOUSE, Strain/Sex: MALE
  outcome: integumentary system (skin)
